# Test results from ChEMBL document CHEMBL1201862, “PubChem BioAssay data set” (2004).
# The source made the active and inactive calls.
# What was measured:
# Nonstructural protein 1 = Nonstructural protein 1 (Influenza A virus, UniProt Q194T2); assay type: functional, Influenza A virus (A/California/07/2009(H1N1))
# [1] = biological target: FAD-linked sulfhydryl oxidase ALR (Homo sapiens, UniProt P55789); assay: ALR-catalysed DTT oxidation blockers – biochemical, H2O2 detection, luminescence, cherry-pick, dose response (AID 493248)
# Sequence of FAD-linked sulfhydryl oxidase ALR (P55789 whole entry): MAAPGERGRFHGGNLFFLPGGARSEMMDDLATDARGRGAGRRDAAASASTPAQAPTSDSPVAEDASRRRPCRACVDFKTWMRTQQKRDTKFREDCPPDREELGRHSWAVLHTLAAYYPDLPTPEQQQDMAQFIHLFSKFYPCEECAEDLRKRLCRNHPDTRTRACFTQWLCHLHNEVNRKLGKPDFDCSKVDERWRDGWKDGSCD
# Vero = assay: cells; assay type: functional; details: Chlorocebus sabaeus
# [2] = biological target: T1, Heat shock factor protein 1 (Mus musculus, UniProt P38532); assay: decrease of HSF1-responsive luciferase luminescence – cell-based, NIH3T3, dose retest, confirmation (AID 2382); assay type: functional;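 further: NIH3T3 fibroblasts with HSF1-driven luciferase reporter stressed by proteasome inhibitor MG132; luminescence from HSF1-driven luciferase expression after 8 hours of MG132 stress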
# T1 sequence (P38532 whole entry): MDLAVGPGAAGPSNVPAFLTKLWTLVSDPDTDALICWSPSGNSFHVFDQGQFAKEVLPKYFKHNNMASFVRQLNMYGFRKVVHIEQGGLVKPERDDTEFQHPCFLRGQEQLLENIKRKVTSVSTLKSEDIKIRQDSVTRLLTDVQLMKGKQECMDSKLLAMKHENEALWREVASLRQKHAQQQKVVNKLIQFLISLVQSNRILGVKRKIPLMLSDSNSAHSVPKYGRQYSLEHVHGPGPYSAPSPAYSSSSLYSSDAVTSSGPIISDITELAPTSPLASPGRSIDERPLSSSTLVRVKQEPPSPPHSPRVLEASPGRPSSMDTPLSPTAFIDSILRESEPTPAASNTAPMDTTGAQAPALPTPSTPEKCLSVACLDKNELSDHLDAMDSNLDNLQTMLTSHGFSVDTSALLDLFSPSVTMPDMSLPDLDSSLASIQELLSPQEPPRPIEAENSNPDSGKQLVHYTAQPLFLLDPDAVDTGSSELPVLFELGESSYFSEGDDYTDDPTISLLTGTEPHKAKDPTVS
# [3] = biological target: T2, Carboxy-terminal domain RNA polymerase II polypeptide A small phosphatase 1 (Homo sapiens, UniProt Q9GZU7); assay: CTDSP1 inhibitors, concentration-response, biochemical, absorbance readout, ultra-high-throughput screen actives (AID 540297); assay type: functional
# T2 sequence (Q9GZU7 whole entry): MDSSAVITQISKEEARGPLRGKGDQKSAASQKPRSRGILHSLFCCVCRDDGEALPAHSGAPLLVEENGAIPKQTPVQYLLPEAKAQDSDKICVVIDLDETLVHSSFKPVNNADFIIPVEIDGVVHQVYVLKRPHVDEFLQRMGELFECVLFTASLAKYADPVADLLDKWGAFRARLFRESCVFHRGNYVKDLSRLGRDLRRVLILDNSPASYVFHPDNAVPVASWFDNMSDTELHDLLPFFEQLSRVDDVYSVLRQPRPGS
# [4] = biological target: T3, RNA-binding protein pos-1 (Caenorhabditis elegans, UniProt G5EF15); assay: disruptors of C. elegans POS-1 RNA interaction – biochemical, fluorescence polarization, dose response (AID 1964);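 further: purified POS-1 fused to maltose binding protein made in E. coli; potency of compounds blocking POS-1 binding to fluorescent RNA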
# T3 sequence (G5EF15 whole entry): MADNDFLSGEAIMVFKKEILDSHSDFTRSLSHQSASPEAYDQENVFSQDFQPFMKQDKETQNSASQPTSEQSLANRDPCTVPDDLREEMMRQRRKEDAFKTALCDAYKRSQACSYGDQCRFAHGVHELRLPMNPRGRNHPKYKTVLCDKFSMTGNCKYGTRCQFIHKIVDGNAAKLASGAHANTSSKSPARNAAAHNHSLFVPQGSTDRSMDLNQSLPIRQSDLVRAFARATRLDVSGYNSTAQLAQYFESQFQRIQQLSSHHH
# [5] = biological target: T4, Rac GTPase-activating protein 1 (Homo sapiens, UniProt Q9H0H5); assay: blockers of MgcRacGAP-driven Rac1 GTP hydrolysis – biochemical, ADP Hunter fluorescence, primary and confirmatory, confirmation (AID 624330); assay type: functional
# T4 sequence (Q9H0H5 whole entry): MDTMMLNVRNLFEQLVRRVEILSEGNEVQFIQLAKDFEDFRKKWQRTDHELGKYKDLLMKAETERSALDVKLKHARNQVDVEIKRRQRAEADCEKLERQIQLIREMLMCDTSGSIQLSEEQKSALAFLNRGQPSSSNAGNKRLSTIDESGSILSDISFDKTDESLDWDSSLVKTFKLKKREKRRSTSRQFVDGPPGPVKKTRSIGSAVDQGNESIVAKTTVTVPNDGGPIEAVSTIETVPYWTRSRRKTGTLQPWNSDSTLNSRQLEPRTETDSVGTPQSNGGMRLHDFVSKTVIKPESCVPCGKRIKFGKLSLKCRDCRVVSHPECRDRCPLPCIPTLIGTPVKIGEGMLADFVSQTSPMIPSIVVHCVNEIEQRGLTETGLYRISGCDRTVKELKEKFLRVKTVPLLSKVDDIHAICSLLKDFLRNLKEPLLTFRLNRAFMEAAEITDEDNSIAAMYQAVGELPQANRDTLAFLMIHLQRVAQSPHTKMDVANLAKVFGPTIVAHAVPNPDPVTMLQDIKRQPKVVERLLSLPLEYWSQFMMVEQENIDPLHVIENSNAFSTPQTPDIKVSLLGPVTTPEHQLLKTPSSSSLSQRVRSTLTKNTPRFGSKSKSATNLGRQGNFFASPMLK
# Genome polyprotein = Genome polyprotein (dengue virus type 2, UniProt P29990); assay: flavivirus cap methylation enzyme inhibition – biochemical, confirmation dose response, primary screen (AID 588689); assay type: functional
# Sequence of Genome polyprotein (P29990 2492-3391 limits assumed): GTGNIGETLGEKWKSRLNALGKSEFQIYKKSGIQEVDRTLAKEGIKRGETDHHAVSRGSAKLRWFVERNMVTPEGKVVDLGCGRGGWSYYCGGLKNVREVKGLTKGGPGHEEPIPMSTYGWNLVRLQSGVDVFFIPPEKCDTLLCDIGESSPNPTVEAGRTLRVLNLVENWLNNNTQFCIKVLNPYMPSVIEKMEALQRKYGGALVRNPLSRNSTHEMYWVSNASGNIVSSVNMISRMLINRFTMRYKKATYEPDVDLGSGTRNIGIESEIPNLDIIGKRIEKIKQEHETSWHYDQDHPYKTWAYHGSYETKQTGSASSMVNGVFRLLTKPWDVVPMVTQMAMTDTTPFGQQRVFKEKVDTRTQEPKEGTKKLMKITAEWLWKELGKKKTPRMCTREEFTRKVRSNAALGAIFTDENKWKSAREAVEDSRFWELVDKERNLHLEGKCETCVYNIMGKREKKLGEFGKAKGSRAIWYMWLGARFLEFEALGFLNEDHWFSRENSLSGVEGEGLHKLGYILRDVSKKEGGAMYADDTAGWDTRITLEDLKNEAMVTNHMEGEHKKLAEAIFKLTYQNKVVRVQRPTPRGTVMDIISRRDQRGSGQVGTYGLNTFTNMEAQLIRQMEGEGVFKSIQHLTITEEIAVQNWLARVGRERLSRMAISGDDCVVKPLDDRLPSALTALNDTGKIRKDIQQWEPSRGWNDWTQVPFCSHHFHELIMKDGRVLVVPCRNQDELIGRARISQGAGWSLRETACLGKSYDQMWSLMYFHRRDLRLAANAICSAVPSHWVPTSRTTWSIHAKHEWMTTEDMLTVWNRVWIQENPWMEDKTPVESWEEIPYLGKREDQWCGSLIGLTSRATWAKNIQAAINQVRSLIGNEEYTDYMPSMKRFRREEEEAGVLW
# [6] = viability of PTEN-deleted HCT116 cells – cell-based, HCT116 PTEN knockout, dose response (AID 1047); assay type: functional;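 further: HCT116 colon tumor cells with PTEN knocked out; cells exposed to compound for 60 hours before readout; potency for loss of cell viability measured by luminescence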
# Paired box protein Pax-8 = Paired box protein Pax-8 (Homo sapiens, UniProt Q06710); assay: PAX8 transcriptional activity inhibition in RMG-I – RMG-I cells, luciferase, cherry-pick, dose response (AID 687027); assay type: functional, cell-based;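 further: luciferase reporter driven by Pax8 target thyroperoxidase promoter measured by SteadyGlo luminescence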
# Sequence of Paired box protein Pax-8 (Q06710 whole entry): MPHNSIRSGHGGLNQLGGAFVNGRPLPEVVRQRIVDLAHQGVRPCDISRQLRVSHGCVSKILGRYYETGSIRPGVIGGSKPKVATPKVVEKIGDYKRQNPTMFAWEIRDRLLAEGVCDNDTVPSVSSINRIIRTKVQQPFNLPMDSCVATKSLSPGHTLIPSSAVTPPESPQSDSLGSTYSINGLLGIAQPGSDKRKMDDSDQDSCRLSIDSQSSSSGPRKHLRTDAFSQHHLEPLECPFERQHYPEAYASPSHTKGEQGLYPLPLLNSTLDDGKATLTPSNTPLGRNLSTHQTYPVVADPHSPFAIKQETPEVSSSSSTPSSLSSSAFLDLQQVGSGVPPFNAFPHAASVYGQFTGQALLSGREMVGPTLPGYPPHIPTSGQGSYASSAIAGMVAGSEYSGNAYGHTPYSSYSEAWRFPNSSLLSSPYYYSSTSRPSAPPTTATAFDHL
# [7] = biological target: T5, Replicative DNA helicase DnaB (Mycobacterium tuberculosis, UniProt P9WMR3); assay: DnaB intein splicing inhibitors, dose response, biochemical, cell-free fluorescence (AID 449749); assay type: functional
# T5 sequence (P9WMR3 whole entry): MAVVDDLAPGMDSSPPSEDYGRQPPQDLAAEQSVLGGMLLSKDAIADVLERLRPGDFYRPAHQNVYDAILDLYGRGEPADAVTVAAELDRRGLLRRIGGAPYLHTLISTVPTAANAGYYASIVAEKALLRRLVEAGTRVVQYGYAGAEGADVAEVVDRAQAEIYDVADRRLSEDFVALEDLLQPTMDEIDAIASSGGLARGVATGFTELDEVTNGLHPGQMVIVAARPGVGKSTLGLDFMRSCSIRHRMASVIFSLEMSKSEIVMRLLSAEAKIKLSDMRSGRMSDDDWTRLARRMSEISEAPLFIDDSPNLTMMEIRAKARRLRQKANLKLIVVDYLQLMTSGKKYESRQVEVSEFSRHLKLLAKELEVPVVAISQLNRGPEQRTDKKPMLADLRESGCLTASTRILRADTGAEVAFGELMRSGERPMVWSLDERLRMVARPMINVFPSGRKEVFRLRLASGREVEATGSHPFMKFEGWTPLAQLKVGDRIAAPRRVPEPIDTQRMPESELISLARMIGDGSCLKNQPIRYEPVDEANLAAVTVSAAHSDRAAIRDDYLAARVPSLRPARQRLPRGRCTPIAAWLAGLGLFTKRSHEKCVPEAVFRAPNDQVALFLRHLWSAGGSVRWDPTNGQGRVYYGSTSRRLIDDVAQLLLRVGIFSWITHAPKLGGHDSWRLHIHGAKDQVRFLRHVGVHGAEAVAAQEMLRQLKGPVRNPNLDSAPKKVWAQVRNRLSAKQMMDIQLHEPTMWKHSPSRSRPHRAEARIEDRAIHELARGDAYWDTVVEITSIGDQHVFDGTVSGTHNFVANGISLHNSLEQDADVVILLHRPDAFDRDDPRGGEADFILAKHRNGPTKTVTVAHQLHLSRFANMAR
# Protein RecA = biological target: T6, Protein RecA (Mycobacterium tuberculosis, UniProt P9WHJ3); assay: Fluorescence Cell-Free Homogeneous Dose Retest to Identify Inhibitors of RecA-Intein Splicing Activity. [Related pubchem assays (depositor defined):AID2097, AID2223, AID489010, AID492950]; assay type: functional
# T6 sequence (P9WHJ3 whole entry): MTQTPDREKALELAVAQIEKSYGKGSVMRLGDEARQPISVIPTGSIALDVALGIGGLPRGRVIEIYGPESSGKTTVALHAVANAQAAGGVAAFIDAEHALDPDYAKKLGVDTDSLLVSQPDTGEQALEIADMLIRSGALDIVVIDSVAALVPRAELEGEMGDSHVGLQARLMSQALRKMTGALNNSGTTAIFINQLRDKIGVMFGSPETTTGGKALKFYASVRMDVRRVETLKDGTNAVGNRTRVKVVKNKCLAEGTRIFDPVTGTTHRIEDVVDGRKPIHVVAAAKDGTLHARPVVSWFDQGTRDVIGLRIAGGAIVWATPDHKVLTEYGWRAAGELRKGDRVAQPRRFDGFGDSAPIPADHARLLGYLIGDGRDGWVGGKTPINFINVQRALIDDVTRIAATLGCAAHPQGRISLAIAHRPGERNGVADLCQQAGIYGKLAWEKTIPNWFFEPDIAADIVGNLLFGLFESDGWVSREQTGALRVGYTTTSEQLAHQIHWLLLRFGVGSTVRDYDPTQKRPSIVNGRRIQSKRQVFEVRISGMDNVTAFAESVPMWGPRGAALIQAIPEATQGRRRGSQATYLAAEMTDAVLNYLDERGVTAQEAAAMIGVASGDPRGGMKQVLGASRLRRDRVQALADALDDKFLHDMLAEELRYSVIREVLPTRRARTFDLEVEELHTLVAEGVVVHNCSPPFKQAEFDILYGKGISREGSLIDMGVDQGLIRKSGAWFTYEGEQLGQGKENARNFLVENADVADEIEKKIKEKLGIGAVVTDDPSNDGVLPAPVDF
# Sequence of Nonstructural protein 1 (Q194T2 whole entry): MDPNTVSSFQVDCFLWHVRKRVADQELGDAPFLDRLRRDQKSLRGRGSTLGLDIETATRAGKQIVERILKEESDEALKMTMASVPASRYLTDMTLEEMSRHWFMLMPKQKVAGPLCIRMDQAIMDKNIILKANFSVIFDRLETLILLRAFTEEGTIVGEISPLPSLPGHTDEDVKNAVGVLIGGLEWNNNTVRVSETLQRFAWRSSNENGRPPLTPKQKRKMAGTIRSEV
structure (smiles),measurement,setting,value
Cc1ccn(CC(=O)N/N=C/c2cc([N+](=O)[O-])ccc2O)n1,IC50,Nonstructural protein 1,7.07 µM (active)
CC1CC/C(=N/Nc2ccccc2)C(=O)N1 (stereo not given),AC50,[1],0.623 µM (active)
CCN(CC)CCNc1nc(-c2ccc(OC)cc2)c(-c2ccc(OC)cc2)s1,CC50,Vero,> 25 µM (active)
Cc1c(NS(=O)(=O)c2cc(C(=O)NCCN(C)C)ccc2Cl)c(=O)n(-c2ccccc2)n1C,EC50,[2],> 195 µM (not active)
same,IC50,[3],9.93 µM (active)
N#C/C(=C\c1ccccc1[N+](=O)[O-])c1nc(C2CC2)cs1,IC50,Nonstructural protein 1,75.1 µM (active)
CN(C)C(=O)c1ccc(NC(=O)c2cc(-c3ccco3)nc3ccccc23)cc1,IC50,[3],7.55 µM (active)
CC(C(=O)Nc1ccc(S(N)(=O)=O)cc1)N1CCc2ccccc21 (stereo not given),AC50,[1],1.8 µM (active)
COc1ccc(CSC2=NCCN2)cc1Br,AC50,[1],0.007 µM (active)
Oc1ccc(/C=N/Nc2[nH]cnc3ncnc2-3)cc1,EC50,[4],> 300 µM (not active)
same,IC50,[5],11.6 µM (active)
C/C=C\C=C\C(=O)N1CC2(CC(c3cccc(NC(=O)CC)c3)=NO2)C[C@H]1C(N)=O (stereo not given in full),IC50,[3],7.57 µM (active)
Cc1c(CCC(=O)N[C@@H](C)C(=O)O)c(=O)oc2c(C)c3oc4c(c3cc12)CCCC4,AC50,[1],3.72 µM (active)
Nc1ccc(NC(=O)c2ccco2)c(Cl)c1,AC50,[1],1.72 µM (active)
CCOC(=O)C1(C)C(N=Nc2cccc(Cl)c2)=C(O)C(=O)N1c1ccccc1 (stereo not given),IC50,Genome polyprotein,18.4 µM (active)
Cc1noc(-c2ccc(Cl)cc2)c1C(=O)ON=C(N)c1ccc(C(C)(C)C)cc1,CC50,Vero,18.8 µM (active)
CCN1CCN(c2cc(C)c3cc(NC(=O)c4ccc5c(c4)OCO5)ccc3n2)CC1,EC50,[6],25.1 µM (active)
same,CC50,Vero,> 25 µM (active)
CCc1ccc(-c2csc3[n+]2CCN3C(C)=O)cc1,AC50,[1],3.62 µM (active)
O=C(CCC1N=C2c3ccccc3N=C(SCC(=O)NCc3ccco3)N2C1=O)NCc1ccco1 (stereo not given),IC50,[3],5.31 µM (active)
CC(=Nc1ccccc1)C1=C(O)C(Cc2ccc(O)cc2)NC1=O (stereo not given),CC50,Vero,0.98 µM (active)
Cc1cc2c(s1)Nc1ccccc1N=C2N1CCN(C)CC1 [OLANZAPINE],AC50,[1],0.369 µM (active)
O=C1CC(NNc2ccccc2)C(=O)N1c1cccc(Cl)c1 (stereo not given),AC50,[1],0.319 µM (active)
N#CCC(=O)Nc1sc2c(c1C(N)=O)CCCC2,AC50,[1],14.4 µM (active)
C[C@@H]1CN([C@H](C)CO)C(=O)c2cc(NC(=O)Nc3ccc(C(F)(F)F)cc3)ccc2O[C@@H](C)CCCCO[C@H]1CN(C)C(=O)Nc1ccc(F)cc1,AC50,Paired box protein Pax-8,1.41 µM (active)
COc1cc(C(C2C(=O)CC(C)(C)CC2=O)C2C(=O)CC(C)(C)CC2=O)cc(OC)c1OC,IC50,Genome polyprotein,87.7 µM (active)
CS(=O)(=O)C1=NN2C(=N)/C(=C\c3ccc(OCCOc4ccccc4)cc3)C(=O)N=C2S1,IC50,[3],6.76 µM (active)
COc1ccccc1/C=C1/C(=O)N(c2ccccc2)N=C1C,AC50,[7],96.6 µM (active)
same,EC50,Protein RecA,0.0356 µM (active)
same,IC50,Genome polyprotein,90.2 µM (active)
same,IC50,[5],119 µM (active)
O=C(N/N=C/C1C(=O)NC(=S)N(c2ccccc2)C1=O)c1cc(Br)c(O)c(Br)c1 (stereo not given),IC50,Nonstructural protein 1,10.5 µM (active)
NC(=NO)c1ccc(NC(=O)c2ccc(Br)o2)cc1,AC50,[1],0.16 µM (active)
Cc1nn(Cc2cccc(C(=O)NC3CCCCC3)c2)c(C)c1Cl,CC50,Vero,> 25 µM (active)
Oc1ccc2ccccc2c1N=Nc1ccc(F)cc1,IC50,Nonstructural protein 1,16.2 µM (active)
